Experimental data published in patent publication US20140127287A1, “LIPOSOME-ENCAPSULATED HYDROGELS FOR USE IN A DRUG DELIVERY SYSTEM” (Wisconsin Alumni Research Foundation (WARF), priority 2011, published 2014).

What was measured:
[1] = system: human prostate PC-3 cancer cells; assay: Resazurin-based metabolic cytotoxicity assay, PC-3; type: cell-based; conditions: 24 hours exposure, then 24 hours in DMEM; 17-DMAPG equivalents
Method: (§1) For cell culture, cells were maintained at 37° C., 5% CO2 and 95% humidity in Dulbecco's modified Eagle's medium (DMEM) supplemented with 10% (v/v) heat inactivated fetal bovine serum (FBS), 2 mM L-glutamine and 100 unit/mL penicillin and 1000 μg/mL streptomycin. Cytotoxicity of 17-DMAPG loaded lipogels was assessed in human prostate PC-3 cancer cells and breast carcinoma MDA-MB-231 cells by resazurin-based metabolic assay. Briefly, cells were seeded in 96-well plates with 5,000 cells per well and allowed to adhere for 24 hours prior to the assay. Cells were exposed to various doses (0-35 μM on 17-DMAPG basis) of free 17-DMAPG, lipogel loaded 17-DMAPG and lipogel alone for 24 hours at 37° C., followed by washing with PBS, and maintaining in DMEM medium with 10% FBS for additional 24 hours. 10 μl of resazurin PBS solution (440 μM) was added into each well and incubated for a further 2 hours. The fluorescence was measured with a microplate reader (SpectraMax Gemini XS, Molecular Devices) with excitation at 560 nm and emission at 590 nm using wells without cells as blanks. […] The reading taken from the wells with cells cultured with control medium was used as 100% viability. The cell viability was calculated as Esample/Econtrol×100%. Based on the results of the test, the IC50 values were calculated on GraphPad Prism 5 Software (San Diego Calif., USA).

[2] = system: breast carcinoma MDA-MB-231 cells; assay: Resazurin-based metabolic cytotoxicity assay, MDA-MB-231; type: cell-based, human; conditions: 24 hours exposure, then 24 hours in DMEM; 17-DMAPG equivalents
Method: as §1

pKa of active agents = type: physicochemical; conditions: pH 6.5
[3] = Heat stability of 17-DMAPG during incubation, HPLC analysis; type: physicochemical; conditions: extended incubation at 65° C.

fraction protonated and positively charged (pKa of active agents): approximately 99%
heat stability (in words) [3]: heat instability
SMILES: CO[C@H]1/C=C\C=C(/C)C(=O)NC2=CC(=O)C(NCCCN(C)C)=C(C[C@@H](C)C[C@H](OC)[C@H](O)[C@@H](C)/C=C(\C)[C@@H]1OC(N)=O)C2=O [17-DMAPG, 17-(dimethylaminopropylamino)-17-demethoxygeldanamycin]
IC50 [1]: 807 nM
IC50 [2]: 152 nM
